From article PMC8689140 (Frontiers in Pharmacology, 2021)

Key:
[1] = PK in dogs after single oral or intravenous dose; type: in vivo, dog
Method: Male beagle dogs were randomly divided into four groups. […] The dogs were fasted for 12 h before treatment and 4 h after treatment, but they were granted free access to water. Blood was collected from the vein before administration and 0.083 (only for injection groups), 0.25, 0.5, 1, 2, 3, 4, 6, 8, 12 and 24 h, and placed it in heparinized tubes, and centrifuged it at 8,000 rpm for 10 min at 4°C to separate the plasma, which we stored at −20 °C until analysis. The plasma samples were pretreated by protein precipitation with acetonitrile and quantitated by the validated LC-MS/MS (Shimadzu Exion-Triple Quad 4500) method.
The system consisted of an Exion UHPLC system (Shimadzu, Japan) and a Triple Quad 4500 mass spectrometer (AB Sciex, United States) with an electrospray ionization source. Multiple reaction monitoring in the positive ionization mode was applied to measure analytes. Chromatographic separation was performed on a Acquity BEH C18 column (50 × 2.1 mm i. d., 1.7 μm, Waters, United States). The mobile phase was composed of 0.1% FA in water (A) and 0.1% FA in acetonitrile (B), and the flow rate was 0.4 ml/min. The elution conditions were the following linear gradient: 0–0.4 min: 90% A, 0.4–0.6 min: 60% A, 0.6–1.2 min: 10% A, 1.2–2.2 min: 10% A, 2.2–2.3 min: 90% A, 2.3–3.0 min: 90% A. The optimized parameters were as follows: the spray voltage 5.5 kV, source temperature 550 °C, pressure of source gas 1 and gas 2: 55psi, pressure of curtain gas: 30psi, and the DP, EP and CE voltage was 30,6 and 40 eV, respectively.

[2] = Bidirectional permeability in Caco-2 cell monolayers; type: in vitro ADME; conditions: human, Caco-2, with or without verapamil 30 μM (range covers both); 2.0, 10.0, and 100 µM, presence or absence of verapamil 30 μM, 2 h; read-out: mean Papp (AP→BL)
Method: (§1) Caco-2 cells (ATCC, United States) were seeded on a 96-multiwell insert system (Corning, United States) at a density of 1.0 × 10^5 cells/cm^2. After about 24 days of culture, […] permeability was measured to evaluate the integrity of Caco-2 cell monolayers, and the percent of lucifer yellow in basolateral well which should be less than 1%. Before initiating the transport studies, the cell monolayers were washed with warm HBSS. […] Aliquots from the receiver chamber were collected at 2 h after incubation and stored at −20°C until analysis via LC-MS/MS. All experiments were conducted in triplicate. Permeability coefficient (Papp) and the efflux ratio (ER = P app (BL→AP)/P app (AP→BL)) were calculated.

Caco-2 cell monolayers = experiment: as above; type: in vitro ADME
Method: as §1

COc1cc2c(cc1OCC(F)(F)F)CCN1CC(CC(C)C)C(O)CC21 (single isomer, unassigned; (+)) [(+)-13e, (+)-9-(2,2,2-trifluoroethoxy)-α-dihydrotetrabenazine]
V, V/F ([1]; dog, single intravenous dose 0.6 μmol/kg): 5.4 ± 1.1 L/kg
clearance ([1]; dog, single intravenous dose 0.6 μmol/kg, read-out: Cl, Cl/F (converted)): 1.4 L/h/kg
V, V/F ([1]; dog, single oral dose 3 μmol/kg): 18.8 ± 9.2 L/kg
Cmax smaller than that of VBZ ([1]; dogs, oral administration at an equivalent dose): 2.9 fold
Cmax larger than that of HTBZ ([1]; dogs, oral administration at an equivalent dose (HTBZ from VBZ)): 7.7 fold
bioavailability ([1]; male, beagle, dog, plasma, dogs, oral 3 μmol/kg vs intravenous 0.6 μmol/kg, read-out: absolute oral bioavailability): 75.9%
CL/F ([1]; male, beagle, plasma, 3 umol/kg, dog, single oral dose 3 μmol/kg): 1.9 L/h/kg
Papp A→B at 2 h [2]: 260 to 350 nm/s
permeability across the Caco-2 cell monolayer (Caco-2 cell monolayers): high permeability
substrate of P-gp or breast cancer resistance protein (BCRP) (Caco-2 cell monolayers; efflux not observed): unlikely to be a substrate
